Data taken from PubChem BioAssay (NCI).
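Five concentrations, 48 hours, 96-well plates. TGI: total growth inhibition.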

Tests used:
Experiment in all cases: growth of human tumour cells (NCI), 48 h
[1] = system: MDA-N
[2] = system: SK-MEL-28 melanoma
[3] = system: U251 CNS
[4] = system: PC-3 prostate
[5] = system: 786-0 renal
[6] = system: T-47D breast
[7] = system: NCI/ADR-RES ovarian
[8] = system: HS 578T breast
[9] = system: K-562 leukemia
[10] = system: MCF7 breast
[11] = system: SK-OV-3 ovarian
[12] = system: OVCAR-8 ovarian
[13] = system: OVCAR-3 ovarian
[14] = system: SF-268 CNS
[15] = system: M14 melanoma
[16] = system: MDA-MB-231 breast
[17] = system: HT29 colon
[18] = system: NCI-H522 lung
[19] = system: MALME-3M melanoma
[20] = system: HCC-2998 colon

COc1cc(S(=O)(=O)Nc2nc(-c3ccc(N4C(=O)/C(=C/C=C/c5ccccc5)N=C4c4ccccc4)cc3)cs2)ccc1Cl
TGI [1]: > 100 µM
TGI [2]: > 100 µM
TGI [3]: > 100 µM
TGI [4]: > 100 µM
TGI [5]: > 100 µM
TGI [6]: > 100 µM
TGI [7]: > 100 µM
TGI [8]: > 100 µM
TGI [9]: > 100 µM
TGI [10]: > 100 µM
TGI [11]: > 100 µM
TGI [12]: > 100 µM
TGI [13]: > 100 µM
TGI [14]: > 100 µM
TGI [15]: > 100 µM
TGI [16]: > 100 µM
TGI [17]: > 100 µM
TGI [18]: > 100 µM
TGI [19]: > 100 µM

COc1cc(/C=C2\N=C(c3ccccc3)N(c3nc4cc(C)c(C)cc4s3)C2=O)ccc1O
TGI [1]: 37.7 µM
TGI [2]: > 100 µM
TGI [3]: > 100 µM
TGI [4]: > 100 µM
TGI [5]: > 100 µM
TGI [6]: > 100 µM
TGI [20]: 69.9 µM
TGI [7]: > 100 µM
TGI [8]: > 100 µM
TGI [9]: > 100 µM
TGI [10]: 39.1 µM
TGI [11]: > 100 µM
TGI [12]: > 100 µM
TGI [13]: 65.3 µM
TGI [14]: > 100 µM
TGI [15]: > 100 µM
TGI [16]: > 100 µM
TGI [17]: 99.1 µM

O=c1c2cc(-c3ccccc3)sc2nc2n1N=C(c1ccc(Cl)cc1)CS2
TGI [1]: > 100 µM
TGI [2]: > 100 µM
TGI [3]: > 100 µM
TGI [4]: > 100 µM
TGI [5]: > 100 µM
TGI [6]: > 100 µM
TGI [20]: > 100 µM
TGI [7]: > 100 µM
TGI [8]: > 100 µM
TGI [9]: > 100 µM
TGI [10]: > 100 µM
TGI [11]: > 100 µM
TGI [12]: > 100 µM
TGI [13]: > 100 µM
TGI [14]: > 100 µM
TGI [16]: > 100 µM
TGI [17]: > 100 µM
TGI [18]: > 100 µM
TGI [19]: > 100 µM

CCN(CC)c1ccc2cc(C(N)=S)c(=N)oc2c1
TGI [1]: > 100 µM
TGI [2]: > 100 µM
TGI [3]: > 100 µM
TGI [4]: > 100 µM
TGI [5]: > 100 µM
TGI [6]: > 100 µM
TGI [20]: > 100 µM
TGI [7]: > 100 µM
TGI [8]: > 100 µM
TGI [9]: > 100 µM
TGI [10]: > 100 µM
TGI [11]: > 100 µM
TGI [12]: > 100 µM
TGI [14]: > 100 µM
TGI [15]: > 100 µM
TGI [16]: > 100 µM
TGI [17]: > 100 µM
TGI [18]: > 100 µM
TGI [19]: > 100 µM

CCCCN1CN2C(=O)C(C(=O)OCC)C(=O)c3sc4nc(SC)nc1c4c32 (stereo not given)
TGI [1]: 32.3 µM
TGI [2]: 34 µM
TGI [3]: 33.7 µM
TGI [4]: 39.5 µM
TGI [6]: 42.7 µM
TGI [7]: 37.1 µM
TGI [8]: 19.9 µM
TGI [9]: 77.9 µM
TGI [10]: 39.9 µM
TGI [11]: 31.7 µM
TGI [12]: 36.8 µM
TGI [13]: 34.6 µM
TGI [14]: 39.8 µM
TGI [15]: 40.1 µM
TGI [16]: 32.6 µM
TGI [17]: 40.5 µM
TGI [18]: 35.4 µM
TGI [19]: 30.2 µM

Cc1cc(C)c(S(=O)(=O)N2CCCN(S(=O)(=O)c3c(C)cc(C)cc3C)OCCCO2)c(C)c1
TGI [1]: > 100 µM
TGI [2]: > 100 µM
TGI [3]: > 100 µM
TGI [4]: > 100 µM
TGI [5]: > 100 µM
TGI [6]: > 100 µM
TGI [7]: > 100 µM
TGI [8]: > 100 µM
TGI [9]: > 100 µM
TGI [10]: > 100 µM
TGI [11]: > 100 µM
TGI [12]: > 100 µM
TGI [13]: > 100 µM
TGI [14]: > 100 µM
TGI [15]: > 100 µM
TGI [16]: > 100 µM
TGI [17]: > 100 µM
TGI [18]: > 100 µM
TGI [19]: > 100 µM

Cc1n[nH]c(=O)n1/N=C/c1ccc(F)cc1
TGI [1]: > 100 µM
TGI [2]: > 100 µM
TGI [5]: > 100 µM
TGI [6]: > 100 µM
TGI [20]: > 100 µM
TGI [7]: > 100 µM
TGI [9]: > 100 µM
TGI [11]: > 100 µM
TGI [12]: > 100 µM
TGI [13]: > 100 µM
TGI [14]: > 100 µM
TGI [15]: > 100 µM
TGI [18]: > 100 µM

CC1=NN(c2cccc(Cl)c2)C2(SCC(=O)N2c2nc3ccccc3s2)/C1=C\c1ccc(N(C)C)cc1 (stereo not given)
TGI [1]: > 100 µM
TGI [2]: > 100 µM
TGI [3]: > 100 µM
TGI [4]: > 100 µM
TGI [5]: > 100 µM
TGI [6]: > 100 µM
TGI [20]: > 100 µM
TGI [7]: > 100 µM
TGI [8]: 75.7 µM
TGI [9]: > 100 µM
TGI [10]: > 100 µM
TGI [11]: 39.6 µM
TGI [12]: > 100 µM
TGI [13]: > 100 µM
TGI [14]: > 100 µM
TGI [15]: > 100 µM
TGI [16]: > 100 µM
TGI [17]: > 100 µM
TGI [18]: > 100 µM

COc1ccc(-c2c3c(cc4cc5c(cc24)OCO5)C(=O)OC3)cc1OC
TGI [1]: 13.3 µM
TGI [2]: 9.38 µM
TGI [3]: 22 µM
TGI [4]: 49.7 µM
TGI [5]: 13.9 µM
TGI [6]: 3.46 µM
TGI [20]: 13.9 µM
TGI [7]: 22.4 µM
TGI [8]: 68.8 µM
TGI [9]: > 36.8 µM
TGI [10]: 31.4 µM
TGI [11]: > 62.1 µM
TGI [13]: 18.8 µM
TGI [14]: > 48 µM
TGI [15]: 1.16 µM
TGI [16]: 25.4 µM
TGI [17]: 6.55 µM
TGI [18]: 5.95 µM
TGI [19]: 2.92 µM

COc1ccc(/C=C2\CN(C)C/C(=C\c3ccc(OC)cc3)C2=O)cc1
TGI [1]: > 100 µM
TGI [2]: > 100 µM
TGI [3]: > 100 µM
TGI [4]: > 100 µM
TGI [5]: > 100 µM
TGI [6]: > 100 µM
TGI [20]: > 100 µM
TGI [7]: > 100 µM
TGI [8]: > 100 µM
TGI [9]: > 100 µM
TGI [13]: > 100 µM
TGI [14]: > 100 µM
TGI [15]: > 100 µM
TGI [16]: > 100 µM
TGI [17]: > 100 µM
TGI [18]: > 100 µM
TGI [19]: > 100 µM

COC(=O)c1ccc(NC(=O)O/N=C(\Cl)C(C)C)cc1
TGI [1]: 22.8 µM
TGI [2]: 10.1 µM
TGI [3]: 30.9 µM
TGI [4]: 31.1 µM
TGI [5]: 4.35 µM
TGI [6]: 5.02 µM
TGI [20]: 28.1 µM
TGI [7]: 16.7 µM
TGI [8]: > 66.7 µM
TGI [10]: 19.1 µM
TGI [11]: 31.7 µM
TGI [12]: 32.5 µM
TGI [13]: 4.17 µM
TGI [14]: > 78.1 µM
TGI [15]: 12 µM
TGI [16]: 15.6 µM
TGI [17]: 29.4 µM
TGI [18]: 1.74 µM
TGI [19]: 3.48 µM

COc1cccc(C2c3cc4c(cc3OC(N3CCOCC3)C2C)OCO4)c1OC (stereo not given)
TGI [1]: 46.9 µM
TGI [2]: 32 µM
TGI [4]: 40.6 µM
TGI [5]: 52.7 µM
TGI [6]: 79.1 µM
TGI [20]: 22.8 µM
TGI [7]: 29.7 µM
TGI [8]: 63.5 µM
TGI [9]: 21.1 µM
TGI [10]: > 100 µM
TGI [12]: > 100 µM
TGI [13]: 36.7 µM
TGI [14]: 92.2 µM
TGI [15]: 29 µM
TGI [17]: 15.8 µM
TGI [18]: 34.3 µM

CCCSc1ccc2[nH]c(/N=C/c3ccccc3)cc2c1
TGI [1]: 62.6 µM
TGI [2]: 90.7 µM
TGI [4]: > 100 µM
TGI [5]: 40.1 µM
TGI [6]: > 100 µM
TGI [7]: 47.9 µM
TGI [8]: 62.1 µM
TGI [9]: 38.8 µM
TGI [12]: 56.2 µM
TGI [13]: 60.3 µM
TGI [14]: 49.2 µM
TGI [15]: > 100 µM
TGI [17]: > 100 µM
TGI [18]: 46.2 µM
TGI [19]: 55.7 µM
